Holding throughout (format): in vivo
The subject of test [1] is Blumeria graminis. The experiment in a line: Pathogenicity of Blumeria graminis on wheat leaves. The settings on record: 500 μmol/L, vs DMSO.
Test [2] deals with Magnaporthe oryzae. Briefly: whole plant or invertebrate. The note with it: for inhibition at 100 µM / inhibition at 500 µM: Pyricularia oryzae, read-out: inhibition rate on the number of necrotic spots.
In test [3] the test system is Bipolaris maydis. The experiment in a line: whole plant or invertebrate. The settings on record: for inhibition at 500 µM: Bipolaris maydis, in Zea mays, read-out: inhibition rate on the formation of disease spots.
Test [4] deals with Magnaporthe oryzae. The experiment in a line: whole plant or invertebrate. The note with it: Pyricularia oryzae, read-out: inhibition rate of formation of rice blast necrotic spots, treatment experimental group.
For test [5], the system named is Magnaporthe oryzae. The experiment in a line: whole plant or invertebrate. The settings on record: Pyricularia oryzae, read-out: inhibition rate of formation of rice blast necrotic spots, prevention experimental group.

Each structure is given as a SMILES string. Read-outs that look alike come from different tables or passages of the source.

Broadly, the inhibition is the change of the read-out against control, counted positive when it falls. For `CC(C)N(C(=O)CCl)c1ccccc1` [Propachlor], in test [1], the “inhibition of occurrence of Blumeria graminis disease spots (in words)” value is “all drugs except Propachlor could inhibit the occurrence of Blumeria graminis disease spots”. Moreover, in test [2] (drug concentration 100 μM, 30 seedlings sprayed with 5 mL, rice), the “inhibition of the number of necrotic spots of Magnaporthe oryzae (in words)” value was “insignificant inhibitory effect on rice blast”. The inhibition at 500 µM in test [3] is above 50%.
Consider `Cc1cccc(C)c1N(Cn1cccn1)C(=O)CCl` [Metazachlor], for which the inhibition at 500 µM in test [4], in test [5], in test [2] and in test [3] was above 50% in each case. The inhibition at 100 µM in test [2] was above 50%.
As for `CC(C)N(C(=O)COc1nnc(C(F)(F)F)s1)c1ccc(F)cc1` [Flufenacet], the “inhibition of formation of disease spots on corn leaves (in words)” value in test [3] (in vivo) was “not obvious”.
Turning to `CCCCOCN(C(=O)CCl)c1c(CC)cccc1CC` [Butachlor], the inhibition at 500 µM in test [2] and in test [3] was above 50% in each case.
As for `CC(C)N(C(=O)SC/C(Cl)=C/Cl)C(C)C` [Diallate], the inhibition at 500 µM in test [4], in test [5] and in test [2] was above 50% throughout. Moreover, the inhibition at 100 µM in test [2] was above 50%.
On to `CCN(CC)C(=O)n1cnc(S(=O)(=O)c2c(C)cc(C)cc2C)n1` [Cafenstrole], for which the inhibition at 500 µM in test [4], in test [5], in test [2] and in test [3] was above 50% in each case. In addition, in test [2], the inhibition at 100 µM was above 50%.

The values above are taken from US20220095622A1, “Application of Compounds Inhibiting Synthesis of Very Long Chain Fatty Acids in Preventing and Treating Microbial Pathogens and Method Thereof” (Sichuan Agricultural University, priority 2019, published 2022).
